Data as given in patent publication US8017649B2, “Flavonoid compounds and uses thereof” (Howard Florey Institute of Experimental Physiology and …, priority 2005, dated 2011).
“Also recorded” adds a separate entry of the source.

Assays:
anaesthetised sheep [1] = test: Myocardial ischaemia and reperfusion injury in anaesthetised sheep; type: in vivo; details: for effect on infarct size / cardioprotection: i.v. in aqueous solution after 30 min of ischaemia; for infarct size normalized to the area at risk (IS/AR): lower dose: DiOHF3HA 2.7 mg/kg, DiOHF 2 mg/kg i.v.
Description: The ability of the synthetic flavonol, 3′,4′ dihydroxy flavonol adipate (DiOHF3HA) to prevent myocardial ischaemia and reperfusion injury in anaesthetised Sheep was assessed.
Five groups of anaesthetised adult merino sheep (35-45 kg wethers) were examined:
Anaesthesia was induced by intravenous thiopentone sodium (15 mg/kg) and following tracheal intubation was maintained by isoflurane (1.5-2%). A catheter was inserted in the right facial artery for arterial blood sampling and monitoring arterial pressure. Intravenous infusions were made via a catheter inserted into the jugular vein. The heart was exposed through a left thoracotomy performed at the fourth intercostal space. A 4F catheter-tipped manometer was inserted through the left atrium into the left ventricle to measure left ventricular pressure (LVP). An additional silastic cannula was inserted into the left atrial appendage for the injection of lignocaine and for infusion of Evans Blue. The left anterior descending coronary artery (LAD) was dissected from the epicardium immediately distal to its second diagonal branch, and a transit-time 2 mm flow probe was placed around it to monitor the LAD blood flow. A silk suture was passed under the LAD proximal to the probe and both ends of the silk were threaded through a plastic tube to form a vascular snare.
The animals were allowed to stabilise for 10-15 minutes after the completion of the surgical procedure. Sheep were then randomly divided into different treatment groups. All sheep had 30 minute baseline recording followed by 1 hour ischaemia and 3 hours reperfusion.
During the course of the experiment, haemodynamic measurements were recorded at 5 minute intervals and blood samples were taken at designated time-points. After 30 minutes of ischaemia, flavonol treatment was administered. DiOHF was dissolved in 2 ml DMSO plus 14 ml polyethylene glycol:water (1:1). DiOHF3HA was dissolved in 20 ml 0.1M Na2CO3. The drugs were given at 1 ml/min i.v. The two doses of DiOHF3HA (2.7 mg/kg and 6.6 mg/kg) were chosen to achieve equivalent molar doses to the parent DiOHF compound (at 2 mg/kg and 5 mg/kg, respectively). […] Lignocaine was used, as required, to ameliorate arrhythmias.
The area of myocardium at risk and infarct size were delineated by Evan's blue and triphenyltetrazolium chloride (TTC) staining. After 3 hours of reperfusion, the LAD was re-occluded at the original occlusion site. Immediately after intravenous injection of pentobarbitone (100 mg kg^−1) to arrest the heart, Evan's blue dye (1.5%, 40 ml) was injected into the left atrium to define the myocardium at risk. The heart was rapidly removed and the left ventricle was sliced into transverse sections about 1 cm thick. The unstained risk area was traced onto the same transparencies. The sections were then incubated in 0.1 M sodium phosphate buffer containing 1% TTC for 20 min (37° C., pH 7.4). The infarcted area was traced onto transparencies. The area of myocardium at risk, and infarct size, were measured by computerised planimetry. The former was expressed as a percentage of total left ventricular volume (AR/LV %) and infarct size was expressed as a percentage of the area of myocardium at risk (IS/AR %).
Arterial blood samples (5 ml) were collected into chilled heparinised tubes at baseline, during ischaemia and at three time points during the reperfusion period (1 hour, 2 hour and 3 hour). Following centrifugation at 4° C., plasma samples were stored at −20° C. until measurement to determine levels of lactate dehydrogenase and creatinine kinase.

conscious rats = test: Endothelin-1-induced ischaemic stroke in conscious rats; type: in vivo, rat; details: for hemineglect (sticky tape) test latency / infarct in cortex / infarct in striatum: DiOHF 10 mg/kg or DiOHF3HA 15 mg/kg/day i.v.; for infarct in cortex / infarct in striatum: 72 h
Description: Ischaemic stroke was studied in conscious rats, with daily monitoring of neurological function and post mortem morphological assessment of cerebral infarcts at 72 hours alter stroke. Unilateral, transient cerebral ischaemia and reperfusion was induced in conscious rats by injection of the potent vasoconstrictor endothelin-1 outside but close to the right middle cerebral artery MCA, (via a pre-implanted guide tube). The ensuing stroke was graded on a scale of 0 to 5 by immediate behaviour, and potential neuroprotective compounds were injected intravenously 3 h after the stroke, and at 24 hour intervals thereafter.
Male Hooded Wistar rats (280-340 g) were anaesthetised with pentobarbitone sodium in a volume of 0.6 ml (60 mg/kg i.p.) for insertion of an intravenous (i.v.) catheter into the jugular vein for acute drug administration, A 23-gauge stainless steel guide cannula was then stereotaxically implanted into the piriform cortex 2 mm dorsal to the right MCA (0.2 mm anterior, −5.2 mm lateral and −5.9 mm ventral). The cannula was secured with dental acrylate cement and two small screws inserted into the skull. The scalp was closed with sutures. Rats were housed individually on a 12 h day/night cycle at a temperature of 18-22° C. and allowed to recover for 5 days before induction of stroke.
Vaso constriction of the right middle cerebral artery (MCA) was induced in conscious rats by administration of the potent vasoconstrictor agent endothelin-1 (ET-1) (60 pmol in 3 μl of saline over 10 min) via a 30-gauge injector that protruded 2 mm beyond the end of the previously implanted stereotaxic guide cannula. The injector was held in place by a poly-tubing cuff and the rat was placed in a clear Plexiglass box for observation during ET-1 injection. During stroke induction we observed counter-clockwise circling, clenching and dragging of the contralateral forepaw, validating the correct placement of the cannula. These behavioural changes occurred within 2 to 10 minutes of the commencement of the ET-1 injection and similar behaviours have been reported by other researchers employing this model. We have assigned a rating scale of stroke severity based on these behavioural changes during stroke and have shown that vehicle-treated rats assigned with higher stroke ratings have greater infarct volumes and neurological deficits. […] Rectal temperatures were taken with a thermistor probe, prior to stroke and at 30- or 60-minute intervals for 3 hours after stroke.
All behavioural tests were conducted prior to any procedures (pre-surgery, day 1), immediately prior to ET-1-induced MCA occlusion (pre-ischemia, day 6) and 24, 48 and 72 hours after ET-1-induced MCA occlusion. The behaviour of each rat was compared to pre-stroke, thus each rat acted as its own control. All rats were coded so that the investigator was blinded to treatment condition. Neurological abnormalities were evaluated with the use of a neurological deficit score based on detection of abnormal posture and hemiplegia. Abnormal pastures were assessed by suspending rats by the tail and scoring twisting of the thorax and extension of the forelimbs. Hemiplegia was evaluated when rats were placed on a raised platform. Deficits were deemed to be present when the hind limb contralateral to the infarcted hemisphere slipped off the edge of the platform and/or when the contralateral forelimb slipped off when the snout and whiskers were not in contact with the surface. All behaviours were scored on the following scale: 0=no deficit; 1=slight; 2=moderate; and 3=severe. Thus, when scores were totalled the maximum neurological deficit score was 12. A score of 0 was considered normal.
Sensory hemi-neglect was evaluated using a test consisting of placing adhesive tapes (Avery adhesive label, […] circles) on the distal-radial region of each wrist, Placement of the first tape was randomised between contralateral and ipsilateral limbs. […]

anaesthetised sheep [2] = test: Myocardial ischaemia and reperfusion injury in anaesthetised sheep; type: in vivo; details: higher dose: DiOHF3HA 6.7 mg/kg, DiOHF 5 mg/kg i.v.; 1 h ischaemia, 3 h reperfusion
[3] = all stroke grades (2-4), DiOHF3HA 15 mg/kg/day
[4] = mild to moderate strokes, DiOHF 10 mg/kg or DiOHF3HA 15 mg/kg/day i.v. from 3 h post-stroke

SMILES | regression of LAD flow after reperfusion hyperperfusion (anaesthetised sheep [1]; 6.6 mg/kg vs control) | haemodynamic indices (arterial pressure, HR, LV-EDP, dP/dtmax) during infusion (anaesthetised sheep [1]; 20-min i.v. infusion, 6.6 mg/kg) | increase in plasma creatine kinase (anaesthetised sheep [1]; after 1 hour ischaemia and 3 hours reperfusion) | increase in plasma lactate dehydrogenase (anaesthetised sheep [1]; after 1 hour ischaemia and 3 hours reperfusion, n=4) | effect on infarct size / cardioprotection (anaesthetised sheep [1]) | effect on infarct size / cardioprotection (anaesthetised sheep [1]; listed as Adipate) | infarct size normalized to the area at risk (IS/AR) (anaesthetised sheep [1]) | area of damage in the striatum (conscious rats; all stroke grades (2-4), DiOHF3HA 15 mg/kg) | infarct area through the cortex (conscious rats; all stroke grades (2-4), DiOHF3HA 15 mg/kg i.v.) | body weight following stroke (conscious rats; [3]) | core temperature following intravenous injection (conscious rats; [3]) | hemineglect (sticky label) test latency (conscious rats; [3]) | neurological deficit score (conscious rats; all stroke grades (2-4), DiOHF3HA 15 mg/kg/day, 24, 48 or 72 hours) | hemineglect (sticky tape) test latency (conscious rats; mild to moderate strokes) | neurological deficit score (conscious rats; [4]) | infarct in cortex (conscious rats; mild to moderate strokes) | infarct in striatum (conscious rats; mild to moderate strokes) | body weight following stroke (conscious rats; mild to moderate strokes, DiOHF3HA 15 mg/kg/day) | infarct size normalized to the area at risk (IS/AR) (anaesthetised sheep [2])
O=C(O)CCCCC(=O)Oc1c(-c2ccc(O)c(O)c2)oc2ccccc2c1=O [DiOHF3HA, 3′,4′-dihydroxyflavone-3-hemiadipate] | more rapid | did not alter haemodynamic indices; also recorded: unchanged | 1579±936 U/L | 67±32 U/L | dose-related reduction in infarct size; also recorded: equivalent degree of cardioprotection to the parent compound | significant difference in infarct size | 64% | reduced the area of damage in the striatum | significantly reduced | no significant weight loss | not significantly different from pre-stroke temperature | abolished; also recorded: significantly improved neurological function in the hemineglect test | measurably improved neurological deficit scores | abolished; also recorded: significantly restored neurological function in the hemineglect test | no effect on neurological deficit scores | significantly reduced | significantly reduced the area of infarct through the striatum | did not lose weight | 49±8%
O=c1c(O)c(-c2ccc(O)c(O)c2)oc2ccccc12 [DiOHF, 3′,4′-Dihydroxyflavonol, reference compound] |  |  |  |  |  |  | 73% |  |  |  |  |  |  | abolished the increase in hemineglect scores | reduced the neurological deficits at 48 and 72 h; also recorded: significantly improved neurological outcome | reduced the volume of infarct produced in the cerebral cortex; also recorded: significantly reduced the area of infarct | completely prevented an infarct developing in the striatum; also recorded: significantly reduced the area of infarct |  | 47±8%
